Laboratory results as given in patent publication US10316021B2, “Heteroarylphenoxy benzamide kappa opioid ligands” (Pfizer Inc., priority 2016, dated 2019).
“Also recorded” adds a separate entry of the source. Read-outs that look alike come from different tables or passages of the source.

Key:
[1] = biological target: T1, human kappa opioid receptor (hKOR) (Homo sapiens, UniProt P41145); experiment: Kappa radioligand binding assay ([3H]diprenorphine, CHO cell membranes); conditions: for Selectivity hMOR/hKOR: selectivity ratio calculated by dividing the hMOR Ki by the hKOR Ki
T1 construct: expressed in transfected cells; host or cells: CHO cells
T1 sequence (P41145 whole entry): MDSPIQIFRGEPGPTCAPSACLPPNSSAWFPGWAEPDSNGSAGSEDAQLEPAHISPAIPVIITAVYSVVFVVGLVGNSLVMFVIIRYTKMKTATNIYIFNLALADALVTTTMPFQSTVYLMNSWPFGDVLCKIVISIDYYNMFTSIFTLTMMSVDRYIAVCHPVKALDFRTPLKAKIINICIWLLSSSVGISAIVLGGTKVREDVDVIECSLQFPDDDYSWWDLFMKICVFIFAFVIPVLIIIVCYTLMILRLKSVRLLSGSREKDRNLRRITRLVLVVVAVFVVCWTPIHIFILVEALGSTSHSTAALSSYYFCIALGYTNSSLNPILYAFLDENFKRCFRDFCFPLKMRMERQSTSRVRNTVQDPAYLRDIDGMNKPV
Description: (§1) Kappa and Mu Radioligand Binding Assay:
(§2) Binding assays on membranes from CHO cells expressing human kappa or mu opioid receptors were performed according to standard procedures. Frozen cell paste was homogenized in 50 mM Tris HCl buffer (pH 7.4 @ 4 degrees C.) containing 2.0 mM MgCl2 using a Polytron and spun in a centrifuge at 40,000 g for ten minutes. The final pellet was resuspended in assay buffer (50 mM Tris HCl buffer, pH 7.4, containing 1 mM EDTA, 5 mM MgCl2). Incubations were initiated by the addition of membranes to 96-well plates containing test drugs and [^3H]diprenorphine (0.6 nM final concentration for kappa opioid receptor and 0.5 nM final concentration for mu) in a final volume of 250 μl. Non-specific binding was determined by radioligand binding in the presence of a saturating concentration of naltrexone (10 μM). After a one hour incubation period at room temperature, assay samples were rapidly filtered through PEI coated, GF/B fired Unifilter plates (PerkinElmer) and rinsed with ice-cold 50 mM Tris buffer (pH 7.4). Membrane bound [^3H]diprenorphine levels were determined by liquid scintillation counting of the filterplates in Ecolume scintillation fluid. The IC50 value (concentration at which 50% inhibition of specific binding occurs) was calculated using a logistic 4 parameter fit model of the concentration-response data. Ki values were calculated according to the Cheng Prusoff equation, Ki=IC50/(1+(L/Kd)), where L is the concentration of the radioligand used in the experiment and the Kd value is the dissociation constant for the radioligand (determined previously by saturation analysis).

[2] = biological target: T2, human mu opioid receptor (hMOR) (Homo sapiens, UniProt P35372); experiment: Mu radioligand binding assay ([3H]diprenorphine, CHO cell membranes)
T2 construct: expressed in transfected cells; host or cells: CHO cells
T2 sequence (P35372 whole entry): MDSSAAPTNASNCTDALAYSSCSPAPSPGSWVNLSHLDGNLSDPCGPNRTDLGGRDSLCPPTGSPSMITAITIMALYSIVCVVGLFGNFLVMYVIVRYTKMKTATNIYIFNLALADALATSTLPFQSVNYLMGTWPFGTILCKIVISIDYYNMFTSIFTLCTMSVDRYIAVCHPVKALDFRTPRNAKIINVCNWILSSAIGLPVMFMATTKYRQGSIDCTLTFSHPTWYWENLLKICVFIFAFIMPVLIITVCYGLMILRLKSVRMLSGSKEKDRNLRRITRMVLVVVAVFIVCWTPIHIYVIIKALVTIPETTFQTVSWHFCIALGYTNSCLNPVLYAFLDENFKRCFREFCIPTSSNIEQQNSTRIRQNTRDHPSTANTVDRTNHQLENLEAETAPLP
Description: as §1
as §2, with “The IC50 value (concentration at which 50% inhibition of specific binding occurs) was calculated using a logistic 4 parameter fit model of the concentration-response data.” left out

[3] = In vitro intrinsic clearance in human liver microsomes; format: in vitro ADME
Description: Determination of In Vitro Intrinsic Clearance in Human Liver Microsomes:
Compounds were prepared as solutions in methanol. The final concentration of methanol in the incubation media was 0.2% (v/v). […] The total incubation volume was 1 mL. The reaction mixture was pre-warmed at 37° C. for 2 min before adding NADPH (1.2 mM). Aliquots (75 μL) of the reaction mixture at 0, 5, 10, 15, and 30 min were added to acetonitrile (200 μL) containing internal standard (terfenadine)(0.05 μg/mL), and the samples were centrifuged at 2500 g for 5 min prior to liquid chromatography/tandem mass spectrometry (LC/MS-MS) analysis of each compound using multiple reaction monitoring (MRM). For control experiments, NADPH was omitted from these incubations.
The microsomal half-life (t1/2) was obtained from a log-linear plot of the substrate depletion vs incubation time and was scaled to hepatic intrinsic clearance (CLint) using the following equation, in which the term t1/2 refers to the in vitro half-life: […]

major CYP450 isozymes = experiment: CYP450 DDI cocktail assay (reversible inhibition, all isozymes together); format: in vitro ADME, human; conditions: CYP450 DDI cocktail assay, isozymes inhibited in brackets
Description: Multi-Point Cocktail DDI IC50 Assay Conditions:
Standard marker activity substrates were incubated with pooled human liver microsomes (HL-MIX-102) in the presence of NADPH (1.2 mM) in 100 mM KH2PO4, pH 7.4 containing 3.3 mM MgCl2 at 37° C. The incubation volume was 0.1 mL, utilizing a 384-well plate format. The microsomal protein concentrations (0.1 mg/mL) and P450 concentration (0.035 μM) was used for each probe substrate at the following concentrations [tacrine (1A2) 2 uM; diclofenac (2C9) 5 μM; dextromethorphan (2D6) 5 μM; midazolam (3A4) 2 μM; taxol (2C8) 5 μM; S-mephenytoin (2C19) 40 μM]. Substrate concentrations were near Km values that had been previously determined and incubation times were selected based on determinations of reaction velocity linearity. Each test compound/prototypical inhibitors was tested at a concentration range of 0-30 μM in triplicate, in final vehicle solvent concentrations of 0.9% acetonitrile and 0.1% DMSO. Incubations were initiated with the addition of NADPH. At the end of the incubation period, termination solvent containing internal standard was added, the terminated incubation mixture was centrifuged to precipitate microsomal protein. Samples were directly injected on an HPLC-MS/MS system. A Biomek FX workstation was used for liquid handling and sample incubation.
Reversible CYP450 inhibitory potential for each compound was assessed using the CYP450 DDI cocktail assay, measuring the inhibition of the metabolism of a known probe substrate of each of the major CYP isozymes at 3 μM concentration.

kappa opioid receptor [4] = biological target: T3, kappa opioid receptor (Mus musculus, UniProt P33534); experiment: In vivo receptor occupancy (displacement of [3H]GR103545 in brain); conditions: subcutaneous dosing
T3 construct: from tissue; host or cells: brain of adult male C57BL/6J mice (in vivo)
T3 sequence (P33534 whole entry): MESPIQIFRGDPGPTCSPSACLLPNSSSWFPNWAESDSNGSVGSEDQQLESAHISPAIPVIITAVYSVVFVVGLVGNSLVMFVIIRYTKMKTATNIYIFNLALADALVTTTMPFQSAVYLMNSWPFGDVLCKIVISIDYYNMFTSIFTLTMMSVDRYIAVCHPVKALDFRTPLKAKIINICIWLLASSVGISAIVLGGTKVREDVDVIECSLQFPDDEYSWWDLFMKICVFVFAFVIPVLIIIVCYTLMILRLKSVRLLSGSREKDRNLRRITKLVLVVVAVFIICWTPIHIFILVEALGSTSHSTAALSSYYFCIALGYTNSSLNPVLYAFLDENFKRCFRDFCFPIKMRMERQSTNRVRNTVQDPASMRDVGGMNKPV
Description: (§3) Adult male C576BL/J6 mice from Jackson Labs (Bar Harbor, Me.) were group housed on individually-vented cage racks, in environmentally-controlled animal quarters (light/dark-6:00 am/6:[…]) for a minimum of 7 days prior to use. For progressive ratio studies, mice were food-restricted to 80-85% of their body weight before testing began. All animal procedures were approved by the Pfizer Inc. IACUC and conducted in accordance with the NIH Guide for the Care and Use of Laboratory Animals.
In Vivo Receptor Occupancy
In vivo receptor occupancy was assessed in adult male C57BL6/J mice. Mice were administered increasing doses (0.001-32 mg/kg s.c.) 30 min prior to administration of the kappa opioid receptor ligand, [^3H]GR103545 (100 μCi/kg, intraorbital). Animals were euthanized 10 min later using cervical dislocation and the brains dissected. One hemisphere was stored at −40° C. for subsequent measurement of compound concentration, the other was homogenized in chilled Tris-HCl buffer (50 mM, pH 7.4; 1:10 w/v) for twenty seconds. Samples of brain homogenate were filtered through 0.3 to 0.5% PEI-soaked GF/B filters, and the filters washed twice with chilled buffer before radioactivity was counted overnight using a scintillation counter. Binding of the ligand in cerebellum was used to determine non-specific binding.

kappa opioid receptor [5] = biological target: T3, kappa opioid receptor; experiment: Progressive ratio responding (reversal of spiradoline-induced deficit in motivation); format: in vivo; conditions: co-administered with spiradoline, receptor occupancy measured in a separate group of animals
Description: as §3
Progressive Ratio Responding:
Motivation and food-reinforced operant behavior were assessed in the progressive ratio assay. Adult male C576BL/J6 mice were food-restricted to 80-85% of their body weight over a period of one week and kept in their home cages. Mice were trained to nose-poke for a food reward. […] Mice were assessed in a 60 minute session, where the number of rewards obtained was used as a surrogate of the level of motivation. Once mice had reached a stable level of responding, mice were dosed with the kappa opioid receptor agonist, spiradoline (3.2 mg/kg s.c.), to induce a deficit in motivation. Mice were co-administered increasing doses of the kappa opioid receptor antagonists (0.0032-3.2 mg/kg s.c.) to assess their ability to antagonize the spiradoline-induced deficit.

[6] = Table 19, geometric mean of 2-6 determinations unless otherwise indicated (Example 3: >=7), read-out: hKOR binding assay Ki
[7] = Table 20, radioligand binding, read-out: hKOR binding assay Ki
[8] = Table 19, geometric mean of 2-6 determinations unless otherwise indicated (Example 3: >=7), read-out: hMOR binding assay Ki
[9] = Table 20, radioligand binding, read-out: hMOR binding assay Ki
[10] = radioligand binding, [3H]diprenorphine, read-out: hKOR Ki
[11] = radioligand binding, [3H]diprenorphine, read-out: hMOR Ki

SMILES | Ki [1, 6] | Ki [1, 7] | Selectivity hMOR/hKOR [1] | Ki [2, 8] | Ki [2, 9] | selectivity for KOR over MOR, in words [1] | Ki [1, 10] | Ki [2, 11] | also measured
COc1cc(C2CCCN2Cc2ccc(Oc3ccc(C(N)=O)cc3)cc2)n(C)n1 (single isomer, unassigned) [Example 46, 4-(4-{[2-(3-methoxy-1-methyl-1H-pyrazol-5-yl)pyrrolidin-1-yl]methyl}phenoxy)benzamide] | 0.657 nM | 0.657 nM | 38 | 25 nM | 25 nM | – | – | – | hepatic / metabolic clearance in human liver microsomes, in words [3]: higher metabolic clearance; CLint scaled at 2 μM ([3]; human, pH 7.4, human liver microsomal intrinsic clearance, read-out: HLM CLint): 105 mL/min/kg; >25% reversible inhibition of CYP activity at 3 μM (CYP) (major CYP450 isozymes): no
Cc1cc([C@@H]2CCCN2Cc2ccc(Oc3ccc(C(N)=O)cc3F)cc2)n(C)n1 [Example 45, 4-(4-{[(2S)-2-(1,3-dimethyl-1H-pyrazol-5-yl)pyrrolidin-1-yl]methyl}phenoxy)-3-fluorobenzamide] | 1.7 nM | 1.7 nM | 64 | 108 nM | 108 nM | excellent potency and selectivity over MOR; also recorded: more selective than the phenyl examples, Comparators A and B | – | – | KOR potency, in words [1]: excellent potency; displacement of KOR agonist radioligand binding in the brain, in words (kappa opioid receptor [4]): displaced KOR agonist radioligand ([^3H]GR103545) binding in the brain in an exposure-dependent manner; IC50 (kappa opioid receptor [4]; displacement of [3H]GR103545, unbound brain concentration, read-out: Mouse KOR IVRO unbound brain IC50): 0.25 nM; % KOR IVRO to achieve 50% PR reversal (kappa opioid receptor [5]): 85%
Cc1cc(C2CCCN2Cc2ccc(Oc3ccc(C(N)=O)cc3F)cc2)nn1C (centres unmarked) [Example 44] | 14.5 nM | 14.5 nM | 9 | 127 nM | 127 nM | unacceptably lower levels of selectivity (MOR/KOR) | – | – | –
Cc1nn(C)nc1C1CCCN1Cc1ccc(Oc2ccc(C(N)=O)cc2)cc1 (single isomer, unassigned) [enantiomer of Example 38, 4-(4-{[2-(2,5-dimethyl-2H-1,2,3-triazol-4-yl)pyrrolidin-1-yl]methyl}phenoxy)benzamide] | – | – | – | – | – | – | > 119 nM | 252 nM | –
Cc1nn(C)cc1C1CCCN1Cc1ccc(Oc2ccc(C(N)=O)cc2)c(F)c1 (single isomer, unassigned; (-)) [Example 3, (−)-4-(4-{[2-(1,3-Dimethyl-1H-pyrazol-4-yl)pyrrolidin-1-yl]methyl}-2-fluorophenoxy)benzamide] | 0.461 nM | – | – | 16.9 nM | – | – | – | – | –
Cc1cnn(C)c1C1CCCN1Cc1ccc(Oc2ccc(C(N)=O)cc2F)cc1 (centres unmarked) [Example 43] | 16.8 nM | 16.8 nM | 3 | 56.2 nM | 56.2 nM | unacceptably lower levels of selectivity (MOR/KOR) | – | – | –
COc1nn(C)cc1C1CCCN1Cc1ccc(Oc2ccc(C(N)=O)cc2)c(F)c1 (single isomer, unassigned) [enantiomer of Example 32, 4-(2-fluoro-4-{[2-(3-methoxy-1-methyl-1H-pyrazol-4-yl)pyrrolidin-1-yl]methyl}phenoxy)benzamide] | – | – | – | – | – | – | 0.629 nM | 13.7 nM | –
COc1nn(C)cc1C1CCCCN1Cc1ccc(Oc2ccc(C(N)=O)cc2)cc1 (single isomer, unassigned) [enantiomer of Example 21, 4-(4-{[2-(3-methoxy-1-methyl-1H-pyrazol-4-yl)piperidin-1-yl]methyl}phenoxy)benzamide] | – | – | – | – | – | – | 15.5 nM | 135 nM | –
